According to PubChem BioAssay AID1963433 (Molecular Pharmacology Branch, DTP, NCI, 2024):

System: 772245-204-R-J1-PDC complex spheroid growth
Assay: Anticancer human tumor 772245-204-R-J1-PDC patient-derived rhabdomyosarcoma cell line growth inhibition [Asc]
Conditions: for IC50: curve of first compound; for viability, T/C: stronger effect = lower value
Outline: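 Tumor cells were grown as multicellular spheroids with stromal HUVEC and mesenchymal stem cells and treated singly or in combination. Concentrations fell in half-log steps from the clinical Cmax, or from 10 microM where none was known.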

[1] = second compound 0.1 µM, first compound 0.0316 µM
[2] = second compound 0.1 µM, first compound 0.1 µM
[3] = second compound 0.1 µM, first compound 0.316 µM
[4] = second compound 0.1 µM, first compound 1 µM
[5] = second compound 0.1 µM, first compound 3.16 µM
[6] = second compound 0.1 µM, first compound 10 µM
[7] = second compound 0.316 µM, first compound 0.0316 µM
[8] = second compound 0.316 µM, first compound 0.1 µM
[9] = second compound 0.316 µM, first compound 0.316 µM
[10] = second compound 0.316 µM, first compound 1 µM
[11] = second compound 0.316 µM, first compound 3.16 µM
[12] = second compound 0.316 µM, first compound 10 µM
[13] = second compound 1 µM, first compound 0.0316 µM
[14] = second compound 1 µM, first compound 0.1 µM
[15] = second compound 1 µM, first compound 0.316 µM
[16] = second compound 1 µM, first compound 1 µM
[17] = second compound 1 µM, first compound 3.16 µM
[18] = second compound 1 µM, first compound 10 µM
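Further: compound exposure lasted seven days.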
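Wherever viability, T/C is given: 100% = DMSO vehicle control viability.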

## C=C(F)C(=O)N1CCN(c2nc(OCC3CCCN3C)nc3c2CCN(c2cccc4cccc(Cl)c24)C3)CC1CC#N (stereo not given) + CNC(C)C(=O)NC1CN(S(=O)(=O)c2cccc(S(=O)(=O)N3CCC4CCC(C(=O)NC(c5ccccc5)c5ccccc5)N4C(=O)C(NC(=O)C(C)NC)C3)c2)CCC2CCC(C(=O)NC(c3ccccc3)c3ccccc3)N2C1=O
Second compound 0.01 µM
  IC50: 5.51 µM
Second compound 0.0316 µM
  IC50: 6.3 µM
Second compound 0.1 µM
  IC50: 4.84 µM
Second compound 0.316 µM
  IC50: 4.88 µM
Second compound 1 µM
  IC50: 4.84 µM
Second compound 0.01 µM, first compound 0.0316 µM
  viability, T/C: 98.8%
Second compound 0.01 µM, first compound 0.1 µM
  viability, T/C: 102%
Second compound 0.01 µM, first compound 0.316 µM
  viability, T/C: 91.3%
Second compound 0.01 µM, first compound 1 µM
  viability, T/C: 108%
Second compound 0.01 µM, first compound 3.16 µM
  viability, T/C: 87.2%
Second compound 0.01 µM, first compound 10 µM
  viability, T/C: 9.53%
Second compound 0.0316 µM, first compound 0.0316 µM
  viability, T/C: 112%
Second compound 0.0316 µM, first compound 0.1 µM
  viability, T/C: 105%
Second compound 0.0316 µM, first compound 0.316 µM
  viability, T/C: 97.5%
Second compound 0.0316 µM, first compound 1 µM
  viability, T/C: 99.7%
Second compound 0.0316 µM, first compound 3.16 µM
  viability, T/C: 97.6%
Second compound 0.0316 µM, first compound 10 µM
  viability, T/C: 18%
[1]
  viability, T/C: 100%
[2]
  viability, T/C: 91.1%
[3]
  viability, T/C: 95%
[4]
  viability, T/C: 94.4%
[5]
  viability, T/C: 79.2%
[6]
  viability, T/C: 0.25%
[7]
  viability, T/C: 98%
[8]
  viability, T/C: 94.1%
[9]
  viability, T/C: 84.4%
[10]
  viability, T/C: 105%
[11]
  viability, T/C: 80.2%
[12]
  viability, T/C: 0.26%
[13]
  viability, T/C: 93.5%
[14]
  viability, T/C: 106%
[15]
  viability, T/C: 87.1%
[16]
  viability, T/C: 82.9%
[17]
  viability, T/C: 81.4%
[18]
  viability, T/C: 0.98%

## CCN1C(C(=O)NC23CCC(C(=O)O)(CC2)CC3)C(c2cccc(Cl)c2F)C2(C(=O)Nc3cc(Cl)ccc32)C12CCCCC2 (stereo not given) + CNC(C)C(=O)NC1CN(S(=O)(=O)c2cccc(S(=O)(=O)N3CCC4CCC(C(=O)NC(c5ccccc5)c5ccccc5)N4C(=O)C(NC(=O)C(C)NC)C3)c2)CCC2CCC(C(=O)NC(c3ccccc3)c3ccccc3)N2C1=O
Second compound 0.01 µM
  IC50: > 3 µM
Second compound 0.0316 µM
  IC50: > 3 µM
Second compound 0.1 µM
  IC50: > 3 µM
Second compound 0.316 µM
  IC50: > 3 µM
Second compound 1 µM
  IC50: > 3 µM
Second compound 0.01 µM, first compound 0.00949 µM
  viability, T/C: 103%
Second compound 0.01 µM, first compound 0.03 µM
  viability, T/C: 106%
Second compound 0.01 µM, first compound 0.0949 µM
  viability, T/C: 111%
Second compound 0.01 µM, first compound 0.3 µM
  viability, T/C: 96.1%
Second compound 0.01 µM, first compound 0.949 µM
  viability, T/C: 80.3%
Second compound 0.01 µM, first compound 3 µM
  viability, T/C: 77.4%
Second compound 0.0316 µM, first compound 0.00949 µM
  viability, T/C: 97.7%
Second compound 0.0316 µM, first compound 0.03 µM
  viability, T/C: 105%
Second compound 0.0316 µM, first compound 0.0949 µM
  viability, T/C: 98.2%
Second compound 0.0316 µM, first compound 0.3 µM
  viability, T/C: 90.9%
Second compound 0.0316 µM, first compound 0.949 µM
  viability, T/C: 93.3%
Second compound 0.0316 µM, first compound 3 µM
  viability, T/C: 75.7%
Second compound 0.1 µM, first compound 0.00949 µM
  viability, T/C: 97.9%
Second compound 0.1 µM, first compound 0.03 µM
  viability, T/C: 102%
Second compound 0.1 µM, first compound 0.0949 µM
  viability, T/C: 88.5%
Second compound 0.1 µM, first compound 0.3 µM
  viability, T/C: 91%
Second compound 0.1 µM, first compound 0.949 µM
  viability, T/C: 82.2%
Second compound 0.1 µM, first compound 3 µM
  viability, T/C: 65.2%
Second compound 0.316 µM, first compound 0.00949 µM
  viability, T/C: 96.6%
Second compound 0.316 µM, first compound 0.03 µM
  viability, T/C: 96.4%
Second compound 0.316 µM, first compound 0.0949 µM
  viability, T/C: 98.6%
Second compound 0.316 µM, first compound 0.3 µM
  viability, T/C: 92.3%
Second compound 0.316 µM, first compound 0.949 µM
  viability, T/C: 86.8%
Second compound 0.316 µM, first compound 3 µM
  viability, T/C: 105%
Second compound 1 µM, first compound 0.00949 µM
  viability, T/C: 103%
Second compound 1 µM, first compound 0.03 µM
  viability, T/C: 105%
Second compound 1 µM, first compound 0.0949 µM
  viability, T/C: 96.2%
Second compound 1 µM, first compound 0.3 µM
  viability, T/C: 89.1%
Second compound 1 µM, first compound 0.949 µM
  viability, T/C: 86.4%
Second compound 1 µM, first compound 3 µM
  viability, T/C: 76.3%

## O=C(c1cc(Cc2n[nH]c(=O)c3ccccc23)ccc1F)N1CCN(C(=O)C2CC2)CC1 + Cc1c(S(C)(=O)=O)c(-c2cc(F)cc(N3CCN(c4ccc(NS(=O)(=O)c5ccc(NC(CCN6CCC(C(=O)OCCCP(=O)(O)O)CC6)CSc6ccccc6)c(S(=O)(=O)C(F)(F)F)c5)cc4)CC3)c2)c(-c2ccc(Cl)cc2)n1C(C)C
Second compound 0.1 µM
  IC50: 3.27 µM
Second compound 0.316 µM
  IC50: 0.435 µM
Second compound 1 µM
  IC50: 0.0445 µM
Second compound 3.16 µM
  IC50: < 0.0316 µM
Second compound 10 µM
  IC50: < 0.0316 µM
[1]
  viability, T/C: 76.8%
[2]
  viability, T/C: 81.5%
[3]
  viability, T/C: 83.2%
[4]
  viability, T/C: 63.6%
[5]
  viability, T/C: 52.7%
[6]
  viability, T/C: 34.3%
[7]
  viability, T/C: 62.8%
[8]
  viability, T/C: 50.5%
[9]
  viability, T/C: 44.2%
[10]
  viability, T/C: 54.5%
[11]
  viability, T/C: 28.5%
[12]
  viability, T/C: 10.6%
[13]
  viability, T/C: 52.1%
[14]
  viability, T/C: 46.8%
[15]
  viability, T/C: 46.9%
[16]
  viability, T/C: 30.7%
[17]
  viability, T/C: 12.8%
[18]
  viability, T/C: 6.31%
Second compound 3.16 µM, first compound 0.0316 µM
  viability, T/C: 26.3%
Second compound 3.16 µM, first compound 0.1 µM
  viability, T/C: 36.3%
Second compound 3.16 µM, first compound 0.316 µM
  viability, T/C: 33.9%
Second compound 3.16 µM, first compound 1 µM
  viability, T/C: 22%
Second compound 3.16 µM, first compound 3.16 µM
  viability, T/C: 6.64%
Second compound 3.16 µM, first compound 10 µM
  viability, T/C: 2.64%
Second compound 10 µM, first compound 0.0316 µM
  viability, T/C: 34.8%
Second compound 10 µM, first compound 0.1 µM
  viability, T/C: 47.2%
Second compound 10 µM, first compound 0.316 µM
  viability, T/C: 33.8%
Second compound 10 µM, first compound 1 µM
  viability, T/C: 17.4%
Second compound 10 µM, first compound 3.16 µM
  viability, T/C: 13.3%
Second compound 10 µM, first compound 10 µM
  viability, T/C: 6.24%
